Assay results reported in patent US20120142668A1, “CATHEPSIN C INHIBITORS” (priority 2009, published 2012).
pIC50: −log10 of the molar value. Counter-ions that a name gives are not always drawn.

Biological target: recombinant human cathepsin C (Homo sapiens, UniProt P53634)
Assay: Recombinant Cathepsin C In Vitro Assay (cleavage of fluorogenic substrate H-Ser-Tyr-AMC)
Assay type: biochemical
Conditions: 24 pM enzyme, pH 5.5, one hour preincubation with compound at room temperature, read-out: concentration at which 50% cathepsin C inhibition is exhibited
Protocol: C. Recombinant Cathepsin C In Vitro Assay:
The activity of recombinant human cathepsin C was measured by the cleavage of a fluorogenic substrate, H-Ser-Tyr-AMC. Briefly, 24 pM cathepsin C was incubated with test compound (e.g. inhibitor) in a buffer consisting of 50 mM sodium acetate, 30 mM sodium chloride, 1 mM CHAPS, 1 mM dithiothreitol, 1 mM EDTA, pH 5.5 at room temperature for one hour. After one hour of incubating test compound with cathepsin C, the activity assay was initiated by the addition of an equal volume of 0.010 mM H-Ser-Tyr-AMC in the same buffer. After one hour, the activity assay was stopped by the addition of ⅕ volume of 100 μM E-64. The reaction product was measured on a fluorescence reader set at an excitation wavelength of 360 nm and emission wavelength of 460 nm and equipped with a 400 nm dichroic mirror.

Chain of recombinant human cathepsin C (P53634 25-463): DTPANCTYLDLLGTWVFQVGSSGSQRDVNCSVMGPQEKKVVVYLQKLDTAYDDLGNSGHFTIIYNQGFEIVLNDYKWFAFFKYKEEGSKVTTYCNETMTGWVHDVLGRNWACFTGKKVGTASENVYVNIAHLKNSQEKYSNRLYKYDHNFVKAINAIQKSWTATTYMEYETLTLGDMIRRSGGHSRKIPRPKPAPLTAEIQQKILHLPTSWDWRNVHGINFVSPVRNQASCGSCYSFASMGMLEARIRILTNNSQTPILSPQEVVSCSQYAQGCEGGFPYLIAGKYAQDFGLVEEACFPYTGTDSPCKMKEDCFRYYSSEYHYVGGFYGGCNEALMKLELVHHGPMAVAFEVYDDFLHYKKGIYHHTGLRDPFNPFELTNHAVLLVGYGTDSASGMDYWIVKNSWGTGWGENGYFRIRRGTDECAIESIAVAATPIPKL

C[C@H](N)C(=O)N[C@H](/C=C/C(=O)NCc1ccccc1)CCc1ccccc1 [Example 1, (2E,4S)-4-(L-alanylamino)-6-phenyl-N-(phenylmethyl)-2-hexenamide hydrochloride]
pIC50: ~7.00

C[C@H](N)C(=O)N[C@H](/C=C/C(=O)N(C)C)CCc1ccccc1 [Example 3, (2E,4S)-4-(L-alanylamino)-N,N-dimethyl-6-phenyl-2-hexenamide hydrochloride]
pIC50: ~6.00
